Measured values published in publication PMC12015462, “Prioritization of novel anti-infective stilbene derivatives by combining metabolomic data organization and a stringent 3R-infection model in a knowledge graph” (RSC Advances, 2025).
Read-outs that look alike come from different tables or passages of the source.

What was measured:
Type in all cases: cell-based
[1] = tested on: Dictyostelium discoideum; experiment: Infection assay: growth of the host amoeba D. discoideum (fluorescence) in infection; conditions: for activity at 0.411523 µM / activity at 1.23457 µM / activity at 3.7037 µM / activity at 11.1111 µM / activity at 33.3333 µM / activity at 100 µM: 72 h; for IC50: read-out: IC50 Dd in infection (μM)
From the text: (§1) Since fractions were not weighed individually, the injection mass was used to calculate an average mass per fraction and thus a nominal mass concentration.

[2] = tested on: Mycobacterium marinum; experiment: Infection assay: intracellular M. marinum growth (luminescence) in D. discoideum; conditions: for activity at 0.411523 µM / activity at 1.23457 µM / activity at 3.7037 µM / activity at 11.1111 µM / activity at 33.3333 µM / activity at 100 µM: 72 h; for activity at 0.411523 µM: conc 0.411522634 uM; for activity at 1.23457 µM: conc 1.234567901 uM; for activity at 3.7037 µM: conc 3.703703704 uM; for activity at 11.1111 µM: conc 11.11111111 uM; for activity at 33.3333 µM: conc 33.33333333 uM; for activity at 100 µM: conc 100 uM; for IC50: interpolated between the two concentrations closest to residual growth 0.5, top concentration 100 μM
From the text: as §1

[3] = tested on: Mycobacterium marinum; experiment: Anti-biotic assay: M. marinum growth in broth (luminescence); conditions: for activity at 0.411523 µM / activity at 1.23457 µM / activity at 3.7037 µM / activity at 11.1111 µM / activity at 33.3333 µM / activity at 100 µM: 72 h; for IC50: read-out: IC50 Mm in broth (μM)
Protocol: as §1
Plating bacteria and compounds or fractions was performed analogously to the infection assay described above. Bacteria growth was monitored with the Agilent BioTek H1 plate reader by recording luminescence at 32 °C.
The prepared plates were sealed and stored at 4 °C overnight. On the day of the experiment, nine 10 cm Petri dishes were infected (as described before) and grouped into three pools.

[4] = read-out: mean normalized residual growth, Dd in infection
[5] = read-out: median normalized residual growth, Dd in infection
[6] = vehicle control set at 1, read-out: mean normalized residual growth, Mm in infection
[7] = vehicle control set at 1, read-out: median normalized residual growth, Mm in infection
[8] = read-out: mean (normalised M. marinum growth, Mm in broth)
[9] = read-out: median (normalised M. marinum growth, Mm in broth)

SMILES	activity at 0.411523 µM [1, 4] [%]	activity at 1.23457 µM [1, 4] [%]	activity at 3.7037 µM [1, 4] [%]	activity at 11.1111 µM [1, 4] [%]	activity at 33.3333 µM [1, 4] [%]	activity at 100 µM [1, 4] [%]	activity at 0.411523 µM [1, 5] [%]	activity at 1.23457 µM [1, 5] [%]	activity at 3.7037 µM [1, 5] [%]	activity at 11.1111 µM [1, 5] [%]	activity at 33.3333 µM [1, 5] [%]	activity at 100 µM [1, 5] [%]	IC50 [1] [µM]	activity at 0.411523 µM [2, 6] [%]	activity at 0.411523 µM [2, 7] [%]	activity at 1.23457 µM [2, 6] [%]	activity at 1.23457 µM [2, 7] [%]	activity at 3.7037 µM [2, 6] [%]	activity at 3.7037 µM [2, 7] [%]	activity at 11.1111 µM [2, 6] [%]	also measured
Oc1ccc(/C=C/c2cc(O)c3c(c2)O[C@@H](c2ccc(O)cc2)[C@@H]3c2cc(O)c3c(c2)O[C@@H](c2ccc(O)cc2O)[C@H]3c2cc(O)cc(O)c2)cc1 [Compound 4, (−)-Gnetoline A]	146	109	106	88.5	79	-10.4	96.5	84.4	85.1	79.5	79.5	38.1	66.7	153	139	173	160	176	171	139	activity at 11.1111 µM [2, 7]: 135%; activity at 33.3333 µM [2, 6]: 88.4%; activity at 33.3333 µM [2, 7]: 86.1%; activity at 100 µM [2, 6]: 12.2%; activity at 100 µM [2, 7]: 17.7%; IC50 [2]: 66.7 µM; activity at 0.411523 µM [3, 8]: 115%; activity at 1.23457 µM [3, 8]: 113%; activity at 3.7037 µM [3, 8]: 113%; activity at 11.1111 µM [3, 8]: 112%; activity at 33.3333 µM [3, 8]: 110%; activity at 100 µM [3, 8]: 99.3%; activity at 0.411523 µM [3, 9]: 112%; activity at 1.23457 µM [3, 9]: 115%; activity at 3.7037 µM [3, 9]: 115%; activity at 11.1111 µM [3, 9]: 116%; activity at 33.3333 µM [3, 9]: 108%; activity at 100 µM [3, 9]: 99.5%; IC50 [3]: > 100 µM
Oc1ccc(/C=C/c2cc(O)c3c(c2)O[C@H](c2ccc(O)cc2O)[C@@H]3c2cc(O)cc(O)c2)cc1 (relative stereo) [Compound 2, (+)-Gnetupendin C]	94.2	97.6	98.8	105	101	114	101	91.8	86	76.8	74.6	83.1	> 100	112	122	145	143	154	147	167	activity at 11.1111 µM [2, 7]: 167%; activity at 33.3333 µM [2, 6]: 109%; activity at 33.3333 µM [2, 7]: 105%; activity at 100 µM [2, 6]: 27.8%; activity at 100 µM [2, 7]: 35.5%; IC50 [2]: 66.7 µM; activity at 0.411523 µM [3, 8]: 97.4%; activity at 1.23457 µM [3, 8]: 103%; activity at 3.7037 µM [3, 8]: 113%; activity at 11.1111 µM [3, 8]: 109%; activity at 33.3333 µM [3, 8]: 110%; activity at 100 µM [3, 8]: 109%; activity at 0.411523 µM [3, 9]: 95.6%; activity at 1.23457 µM [3, 9]: 101%; activity at 3.7037 µM [3, 9]: 111%; activity at 11.1111 µM [3, 9]: 108%; activity at 33.3333 µM [3, 9]: 109%; activity at 100 µM [3, 9]: 109%; IC50 [3]: > 100 µM
